Data on three molecules can be found in US20050158435A1, “Process for producing sdg and foods and drinks containing the same” (Suntory Limited, priority 2002, published 2005).

Common to all, as to assay type: in vivo, rat
The test system of assay [1] is ovariectomized rats. Put plainly: Hot flashes model: temperature at the tail skin of ovariectomized rats. Particulars: 0.1% in diet, 4 weeks (FIG. 3). The method, then:
A sharp decline of estrogen levels after the menopause invites hormone imbalance and autonomic failure to cause vasomotor disturbance-like symptoms such as hot flashes. In experimental animals, ovariectomy of female rats induces a rise in the temperature at the tail skin and symptoms corresponding to hot flashes among menopausal symptoms. The temperature at the tail skin was measured in ovariectomized rats treated with SDG and soybean isoflavone.
(§1) Wistar-strain female rats (Charles River Japan, Inc.) were used, among which 41 animals were ovariectomized at 6 weeks of age and 9 animals were sham-operated at the same age, and raised on not-purified chow (CE 2; Clea Japan). After a week, the ovariectomized rats were divided into […]. The sham-operated non-ovariectomized group […] was used as a positive control.
Group I and group V and non-ovariectomized group had free access for 4 weeks to a basic diet consisting of AIN-93M Mix purified diet without Ca (Oriental Yeast Co., Ltd.). Group II, group III and group IV were fed with the basic diet supplemented with 0.1% each of soybean isoflavone, SDG (composition 4), and a combination of soybean isoflavone and SDG, respectively. […] During the raising period, the temperature at the tail skin of the rat was measured with a precision thermometer BAT-12R (Physitemp).

For assay [2], the system named is ovariectomized rats. The assay can be described thus: Bone mass (femoral dry weight) in ovariectomized rats. Particulars: 4 weeks. From the text:
(§2) It is known that after the menopause bone mass decreases through the activation of osteoclasts due to estrogen decline and causes osteoporotic symptoms. Estrogen decline may disturb the balance of lipid metabolism to cause symptoms such as hyperlipidemia and hypercholesterolemia. Ovariectomized female rats are commonly used as model animals of menopausal symptoms because ovariectomy induces the above symptoms due to the decline of estrogen levels. […] Wistar-strain female rats (Charles River Japan, Inc.) were used, among which 34 animals were ovariectomized (OVX) at 6 weeks of age and 9 animals were sham-operated (Sham) at the same age, and raised on not-purified chow (CE 2; Clea Japan). After 2 weeks, the ovariectomized rats were divided into 4 groups (n=8-9) called groups I to IV. The sham-operated non-ovariectomized group (group V, n=9) was used as a positive control. Group I and group V were free access for 4 weeks to a basic diet consisting of AIN-93M Mix purified diet without Ca (Oriental Yeast Co., Ltd.). […] On the end date of raising the rats, they were weighed and then anatomized to collect blood and dissect the right femur. After adherent tissues were removed, the femur dissected from the rat's right leg was dried at 100° C. for 24 hours and weighed.

For assay [3], the system named is ovariectomized rats. Put plainly: Antiobesity effect: body weight changes in ovariectomized rats. Particulars: forced oral administration once a day for 14 days after ovariectomy (FIG. 2). From the text: Female Wister-strain rats at 7 weeks of age were ovariectomized and treated with each sample once a day by forced oral administration using a metal gastric tube for 14 days after surgery. Each group consisted of 8 animals (n=8). The animals were weighed to evaluate the effect on obesity due to increased appetite after the menopause. The samples used were 17β estradiol as a positive control and genistein as a reference sample, which is a major compound of soybean isoflavone. The SDG sample was composition 4.

Assay [4] concerns ovariectomized rats. Put plainly: Uterine weight in ovariectomized rats.
Excerpt: as §1
Group I and group V and non-ovariectomized group had free access for 4 weeks to a basic diet consisting of AIN-93M Mix purified diet without Ca (Oriental Yeast Co., Ltd.). Group II, group III and group IV were fed with the basic diet supplemented with 0.1% each of soybean isoflavone, SDG (composition 4), and a combination of soybean isoflavone and SDG, respectively. Group V was treated with 17β estradiol at 1 μg/day by subcutaneous administration through the period of ingesting the test diet. During the raising period, the temperature at the tail skin of the rat was measured with a precision thermometer BAT-12R (Physitemp).
At the end of the studies in Example 7, the rats were autopsied and measured for uterine weight.

Assay [5] deals with ovariectomized rats. The assay can be described thus: Blood triglyceride levels in ovariectomized rats. Particulars: 0.1% in diet, 4 weeks.
Excerpt: as §2, with “Evaluation of lipid metabolism-improving effect: Plasma was isolated” for “After adherent tissues were removed, the femur dissected”, “rat blood and assayed” for “the rat's right leg was dried at 100° C.”, “triglyceride by an automatic analyzer (Hitachi).” for “24 hours and weighed.”

For the molecule “secoisolariciresinol diglycoside [composition 4]”, the “Rise in the temperature at the tail skin” value in the assay with ovariectomized rats [1] is “the rise was inhibited”. Further, the “Femoral dry weight (per 100 g body weight)” value in the assay with ovariectomized rats [2] (ovariectomized Wistar female rats, basic diet supplemented with 0.1% of sample) is listed as 90.9 ± 2.7 mg. Also, the “Inhibition of bone mass decline vs group I (ovariectomized control)” value in the assay with ovariectomized rats [2] (ovariectomized rats, 0.1% in diet) is given as “tendency of inhibiting bone mass decline”. Also, the Body weight gain result in the assay on ovariectomized rats [3] (50 mg/Kg) is on record as “body weight gain was inhibited”. For the same molecule, the Uterine weight in the assay with ovariectomized rats [4] (0.1% in diet, 4 weeks) came to 105.5 ± 6.8 mg. Also, the “Inhibition of triglyceride increase vs group I” value in the assay on ovariectomized rats [5] is reported as “significant inhibitory effect”. The Blood triglyceride in the assay with ovariectomized rats [5] (plasma, *p<0.05, ** vs. group I) was 32.0 ± 3.2* mg/dl.

On to `O=c1c(-c2ccc(O)cc2)coc2cc(O)cc(O)c12` [genistein], for which the Body weight gain result with ovariectomized rats [3] (100 mg/Kg) is on record as “body weight gain was inhibited”.

For `C[C@]12CC[C@@H]3c4ccc(O)cc4CC[C@H]3[C@@H]1CC[C@@H]2O` [17β estradiol], the Body weight gain result in the assay on ovariectomized rats [3] (0.02 mg/kg) is given as “body weight gain was inhibited”. Moreover, the Uterine weight in the assay with ovariectomized rats [4] (1 μg/day subcutaneous administration, ***P < 0.001 vs. group I) is 443.9 ± 28.8*** mg. The Uterine atrophy entry in the assay with ovariectomized rats [4] (autopsy at the end of Example 7) was “did not show uterine atrophy”.
